Assay results as given in the NIST ThermoML archive (doi:10.1021/je100220c).
± gives the expanded uncertainty stated by the source.

Test: excess molar enthalpy (molar enthalpy of mixing); xn = mol fraction of the nth substance listed
Conditions: Liquid, Flow calorimetry

CC(C)=O [acetone] + O=C=O
excess molar enthalpy [kJ/mol]
Conditions	313.15 K	323.15 K	333.15 K
9000 kPa, x2 = 0.095	-0.454 ± 0.015	–	–
9000 kPa, x2 = 0.102	–	-0.728 ± 0.022	-0.753 ± 0.022
9000 kPa, x2 = 0.158	–	-1.1 ± 0.027	–
9000 kPa, x2 = 0.18	-0.935 ± 0.023	–	-1.31 ± 0.032
9000 kPa, x2 = 0.246	-1.2 ± 0.027	-1.7 ± 0.039	-1.78 ± 0.04
9000 kPa, x2 = 0.319	–	-2.14 ± 0.047	–
9000 kPa, x2 = 0.337	-1.49 ± 0.033	–	-2.39 ± 0.053
9000 kPa, x2 = 0.424	–	-2.69 ± 0.059	-2.94 ± 0.064
9000 kPa, x2 = 0.432	-1.86 ± 0.041	–	–
9000 kPa, x2 = 0.507	-2.02 ± 0.044	-3.13 ± 0.068	-3.35 ± 0.072
9000 kPa, x2 = 0.586	-2.23 ± 0.048	-3.49 ± 0.075	–
9000 kPa, x2 = 0.625	–	–	-4.01 ± 0.086
9000 kPa, x2 = 0.662	-2.29 ± 0.049	–	–
9000 kPa, x2 = 0.699	–	-4 ± 0.087	-4.27 ± 0.091
9000 kPa, x2 = 0.771	-2.37 ± 0.051	-4.18 ± 0.09	-4.37 ± 0.093
9000 kPa, x2 = 0.805	–	-4.17 ± 0.09	–
9000 kPa, x2 = 0.807	–	–	-4.2 ± 0.097
9000 kPa, x2 = 0.84	-2.23 ± 0.049	-4.05 ± 0.087	–
9000 kPa, x2 = 0.9	-2.04 ± 0.045	–	–
9000 kPa, x2 = 0.906	–	-3.43 ± 0.081	-2.03 ± 0.063
9000 kPa, x2 = 0.938	-1.74 ± 0.045	-2.61 ± 0.092	-1.21 ± 0.058
9000 kPa, x2 = 0.969	-1.2 ± 0.043	-1.13 ± 0.098	–
12000 kPa, x2 = 0.108	-0.323 ± 0.009	-0.403 ± 0.01	–
12000 kPa, x2 = 0.189	-0.574 ± 0.014	–	–
12000 kPa, x2 = 0.209	–	-0.761 ± 0.018	–
12000 kPa, x2 = 0.258	-0.732 ± 0.017	–	–
12000 kPa, x2 = 0.305	–	-1.06 ± 0.024	–
12000 kPa, x2 = 0.332	-0.922 ± 0.021	–	–
12000 kPa, x2 = 0.351	–	-1.21 ± 0.027	–
12000 kPa, x2 = 0.395	-1.05 ± 0.023	–	–
12000 kPa, x2 = 0.438	–	-1.47 ± 0.032	–
12000 kPa, x2 = 0.464	-1.17 ± 0.025	–	–
12000 kPa, x2 = 0.562	-1.28 ± 0.05	-1.69 ± 0.037	–
12000 kPa, x2 = 0.646	–	-1.77 ± 0.038	–
12000 kPa, x2 = 0.675	-1.32 ± 0.029	–	–
12000 kPa, x2 = 0.747	–	-1.8 ± 0.04	–
12000 kPa, x2 = 0.781	-1.2 ± 0.026	–	–
12000 kPa, x2 = 0.801	–	-1.72 ± 0.039	–
12000 kPa, x2 = 0.847	-1.02 ± 0.024	–	–
12000 kPa, x2 = 0.879	–	-1.39 ± 0.033	–
12000 kPa, x2 = 0.911	-0.736 ± 0.021	–	–
12000 kPa, x2 = 0.941	–	-0.933 ± 0.025	–
12000 kPa, x2 = 0.971	-0.256 ± 0.009	-0.553 ± 0.023	–
15000 kPa, x2 = 0.111	-0.277 ± 0.007	-0.308 ± 0.008	-0.371 ± 0.01
15000 kPa, x2 = 0.194	-0.457 ± 0.011	-0.531 ± 0.013	–
15000 kPa, x2 = 0.215	–	–	-0.677 ± 0.016
15000 kPa, x2 = 0.264	-0.621 ± 0.014	-0.714 ± 0.016	–
15000 kPa, x2 = 0.312	–	–	-0.941 ± 0.021
15000 kPa, x2 = 0.34	-0.76 ± 0.017	–	–
15000 kPa, x2 = 0.359	–	-0.905 ± 0.02	–
15000 kPa, x2 = 0.404	–	–	-1.19 ± 0.027
15000 kPa, x2 = 0.456	-0.906 ± 0.02	–	–
15000 kPa, x2 = 0.473	–	-1.12 ± 0.024	–
15000 kPa, x2 = 0.489	–	–	-1.36 ± 0.03
15000 kPa, x2 = 0.53	-1 ± 0.022	-1.19 ± 0.026	–
15000 kPa, x2 = 0.586	-1.02 ± 0.022	–	–
15000 kPa, x2 = 0.609	–	-1.24 ± 0.027	-1.52 ± 0.034
15000 kPa, x2 = 0.647	-1.02 ± 0.022	–	–
15000 kPa, x2 = 0.683	–	-1.24 ± 0.027	-1.56 ± 0.035
15000 kPa, x2 = 0.719	-0.98 ± 0.021	–	–
15000 kPa, x2 = 0.753	–	–	-1.5 ± 0.034
15000 kPa, x2 = 0.787	-0.887 ± 0.02	-1.12 ± 0.024	–
15000 kPa, x2 = 0.82	–	–	-1.3 ± 0.03
15000 kPa, x2 = 0.852	-0.724 ± 0.017	-0.932 ± 0.021	–
15000 kPa, x2 = 0.883	–	–	-1.04 ± 0.024
15000 kPa, x2 = 0.913	-0.499 ± 0.013	-0.651 ± 0.016	–
15000 kPa, x2 = 0.915	–	–	-0.844 ± 0.023
15000 kPa, x2 = 0.943	-0.364 ± 0.013	-0.49 ± 0.017	-0.653 ± 0.023
15000 kPa, x2 = 0.972	-0.191 ± 0.013	-0.265 ± 0.014	-0.342 ± 0.023
18000 kPa, x2 = 0.114	-0.264 ± 0.007	-0.271 ± 0.008	–
18000 kPa, x2 = 0.198	-0.417 ± 0.01	–	–
18000 kPa, x2 = 0.219	–	-0.518 ± 0.012	–
18000 kPa, x2 = 0.269	-0.541 ± 0.012	–	–
18000 kPa, x2 = 0.318	–	-0.729 ± 0.016	–
18000 kPa, x2 = 0.346	-0.672 ± 0.015	–	–
18000 kPa, x2 = 0.41	-0.781 ± 0.017	-0.883 ± 0.019	–
18000 kPa, x2 = 0.479	-0.846 ± 0.018	-0.974 ± 0.021	–
18000 kPa, x2 = 0.577	-0.898 ± 0.019	-1.04 ± 0.022	–
18000 kPa, x2 = 0.652	-0.919 ± 0.02	-1.02 ± 0.022	–
18000 kPa, x2 = 0.724	-0.857 ± 0.019	-0.967 ± 0.021	–
18000 kPa, x2 = 0.791	-0.722 ± 0.016	-0.857 ± 0.019	–
18000 kPa, x2 = 0.855	-0.569 ± 0.014	-0.698 ± 0.016	–
18000 kPa, x2 = 0.915	-0.383 ± 0.011	-0.453 ± 0.013	–
18000 kPa, x2 = 0.944	–	-0.324 ± 0.012	–
18000 kPa, x2 = 0.956	-0.218 ± 0.009	–	–
18000 kPa, x2 = 0.973	–	-0.186 ± 0.01	–
